Measured values published in patent US9925263B2, “Liquid pharmaceutical formulations for injection comprising procaine and uses thereof” (EAGLE BIOLOGICS, INC., priority 2013, dated 2018).
Counter-ions that a name gives are not always drawn. Like-named read-outs stand apart in the source and are kept apart here.

Tests used:
[1] = system: biosimilar AVASTIN®; test: Viscosity of aqueous solutions of biosimilar AVASTIN® with viscosity-lowering agents; type: physicochemical; conditions: for Magnitude of viscosity-lowering effect (replacement of PB with CSAL): 0.25 M
Procedure: (§1) (unless otherwise indicated).
The protein was formulated to contain either 0.25 M phosphate buffer or 0.25 M CSAL.
(§2) Subsequently, the appropriate amount of viscosity-lowering agent was added to result in a final viscosity-lowering agent concentration of 0.15-0.35 M upon reconstitution.
The viscosity-lowering agent(s) were added in an amount sufficient to give concentration upon reconstitution as specified below. In cases of combinations of agents, the concentration of each component is 0.15 M. The protein solutions were then freeze-dried.

[2] = system: REMICADE®; test: Viscosity of aqueous solutions of […]® with viscosity-lowering agents; type: physicochemical; conditions: 25° C.
Procedure: as §1
An extrapolated zero-shear viscosity was determined from a plot of absolute viscosity versus shear rate.
(§3) Following reconstitution, the viscosity of each solution was measured using the microfluidic viscometer as described in previous examples. The solutions were then back-loaded into 1 mL BD insulin syringes with 27, 29, or 31 gauge fixed needles. The force required to extrude the concentrated […]® solutions was then measured using an Instron at a rate of displacement equivalent to a fluid flow rate of 3 mL/min. The expelled solution was collected from the syringe and analyzed by size-exclusion chromatography.

[3] = system: HERCEPTIN®; test: Viscosity of aqueous solutions of HERCEPTIN® with viscosity-lowering agents; type: physicochemical; conditions: 25° C.
Procedure: All viscosities of well-mixed aqueous mAb solutions were measured using either a mVROC microfluidic viscometer (RheoSense) or a DV2T cone and plate viscometer (Brookfield; “C & P”) after a 5 minute equilibration at 25° C. (unless otherwise indicated). The mVROC viscometer was equipped with an “A” or “B” chip, each manufactured with a 50 micron channel. Typically, 0.10 mL of protein solution was back-loaded into a gastight microlab instrument syringe (Hamilton; 100 μL), affixed to the chip, and measured at multiple flow rates, approximately 20%, 40%, and 60% of the maximum pressure for each chip. […] An average absolute viscosity and standard deviation was then calculated from at least these three measurements. The C & P viscometer was equipped with a CPE40 or CPE52 spindle (cone angle of 0.8° and 3.0°, respectively) and 0.50 mL samples were measured at multiple shear rates between 2 and 400 s^−1. Specifically, samples were measured for 30 seconds each at 22.58, 24.38, 26.25, 28.13, 30, 31.88, 45, 67.5, 90, 112.5, 135, 157.5, 180, 202.5, 247, 270, 292.5, 315, 337.5, 360, 382, 400 s^−1, starting at a shear rate that gave at least 10% torque, and continuing until instrument torque reached 100%. An extrapolated zero-shear viscosity was then determined from a plot of dynamic viscosity versus shear rate for the samples measured on a DV2T cone and plate viscometer. The extrapolated zero-shear viscosities reported are the average and standard deviation of at least three measurements.
(§4) Viscosities were measured using a RheoSense mVROC microfluidic viscometer equipped with an “A” or “B” chip.
Viscosities reported were measured on a RheoSense mVROC microfluidic viscometer.

[4] = system: TYSABRI®; test: Viscosity of aqueous solutions of TYSABRI® with viscosity-lowering agents; type: physicochemical; conditions: 244 mg/mL TYSABRI; excipient 0.1 M; 25° C.
[5] = system: ENBREL®
Procedure: All viscosities of well-mixed aqueous mAb solutions were measured using either a mVROC microfluidic viscometer (RheoSense) or a DV2T cone and plate viscometer (Brookfield; “C & P”) after a 5 minute equilibration at 25° C. […] The mVROC viscometer was equipped with an “A” or “B” chip, each manufactured with a 50 micron channel. Typically, 0.10 mL of protein solution was back-loaded into a gastight microlab instrument syringe (Hamilton; 100 μL), affixed to the chip, and measured at multiple flow rates, approximately 20%, 40%, and 60% of the maximum pressure for each chip. […] An average absolute viscosity and standard deviation was then calculated from at least these three measurements. The C & P viscometer was equipped with a CPE40 or CPE52 spindle (cone angle of 0.8° and 3.0°, respectively) and 0.50 mL samples were measured at multiple shear rates between 2 and 400 s^−1. Specifically, samples were measured for 30 seconds each at 22.58, 24.38, 26.25, 28.13, 30, 31.88, 45, 67.5, 90, 112.5, 135, 157.5, 180, 202.5, 247, 270, 292.5, 315, 337.5, 360, 382, 400 s^−1, starting at a shear rate that gave at least 10% torque, and continuing until instrument torque reached 100%. An extrapolated zero-shear viscosity was then determined from a plot of dynamic viscosity versus shear rate for the samples measured on a DV2T cone and plate viscometer. The extrapolated zero-shear viscosities reported are the average and standard deviation of at least three measurements.
ENBREL® obtained commercially and containing pharmaceutical excipients (Mannitol, Sucrose, Tromethamine) was purified, buffer exchanged, concentrated, dried, reconstituted, and analyzed as described in Example 1 above (using the extinction coefficient of 0.96 L/g·cm at 280 nm).

[6] = system: SIMPONI ARIA®; conditions: […] thiamine HCl vs […] phosphate buffer; FIG. 9
Procedure: (§5) All viscosities of well-mixed aqueous mAb solutions were measured using either a mVROC microfluidic viscometer (RheoSense) or a DV2T cone and plate viscometer (Brookfield; “C & P”) after a 5 minute equilibration at 25° C. […] The mVROC viscometer was equipped with an “A” or “B” chip, each manufactured with a 50 micron channel. Typically, 0.10 mL of protein solution was back-loaded into a gastight microlab instrument syringe (Hamilton; 100 μL), affixed to the chip, and measured at multiple flow rates, approximately 20%, 40%, and 60% of the maximum pressure for each chip. […] An average absolute viscosity and standard deviation was then calculated from at least these three measurements. The C & P viscometer was equipped with a CPE40 or CPE52 spindle (cone angle of 0.8° and 3.0°, respectively) and 0.50 mL samples were measured at multiple shear rates between 2 and 400 s^−1. Specifically, samples were measured for 30 seconds each at 22.58, 24.38, 26.25, 28.13, 30, 31.88, 45, 67.5, 90, 112.5, 135, 157.5, 180, 202.5, 247, 270, 292.5, 315, 337.5, 360, 382, 400 s^−1, starting at a shear rate that gave at least 10% torque, and continuing until instrument torque reached 100%. An extrapolated zero-shear viscosity was then determined from a plot of dynamic viscosity versus shear rate for the samples measured on a DV2T cone and plate viscometer. […]

[7] = system: biosimilar AVASTIN®, TYSABRI®, HERCEPTIN®, biosimilar ERBITUX®, REMICADE®; conditions: thiamine HCl 0.1-0.25 M vs 0.25 M PB; Table 33
Procedure: as §5

[8] = system: Crohn's and ulcerative colitis patients; conditions: studies evaluating long-term clinical outcomes; cited from earlier work
[9] = system: ARZERRA®; test: Viscosity of aqueous solutions of ARZERRA® with viscosity-lowering agents; type: physicochemical; conditions: 0.25M agent, 25° C., pH 7.0
Text: as §1

[10] = system: REMICADE®; test: Monomer content of […]® solutions by size exclusion chromatography; type: physicochemical; conditions: 0.25M agent
Procedure: Biophysical properties of solutions of […]® formulated with 0.25 M CSAA were assessed over 90 days. Samples of […]® formulated with 0.25 M CSAA were prepared as described in Example 1 above.
as §3

[11] = system: REMICADE®; test: Syringe extrusion force of concentrated […]® solutions (Instron); type: physicochemical; conditions: 1 mL BD insulin syringe, 3 mL/min, REMICADE 224-230 mg/mL, 0.25M agent
Procedure: as §3

[12] = system: biosimilar RITUXAN®; test: Viscosity of aqueous solutions of biosimilar RITUXAN® with viscosity-lowering agents;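 further: absolute viscosity of aqueous antibody solutions determined by microfluidic viscometry (mVROC chip, 50 micron channel) at several flow rates after 5 min equilibration, mean of at least three readings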
Procedure: All viscosities of well-mixed aqueous mAb solutions were measured using either a mVROC microfluidic viscometer (RheoSense) or a DV2T cone and plate viscometer (Brookfield; “C & P”) after a 5 minute equilibration at 25° C. […] The mVROC viscometer was equipped with an “A” or “B” chip, each manufactured with a 50 micron channel. Typically, 0.10 mL of protein solution was back-loaded into a gastight microlab instrument syringe (Hamilton; 100 μL), affixed to the chip, and measured at multiple flow rates, approximately 20%, 40%, and 60% of the maximum pressure for each chip. […] An average absolute viscosity and standard deviation was then calculated from at least these three measurements. The C & P viscometer was equipped with a CPE40 or CPE52 spindle (cone angle of 0.8° and 3.0°, respectively) and 0.50 mL samples were measured at multiple shear rates between 2 and 400 s^−1. […] An extrapolated zero-shear viscosity was then determined from a plot of dynamic viscosity versus shear rate for the samples measured on a DV2T cone and plate viscometer. The extrapolated zero-shear viscosities reported are the average and standard deviation of at least three measurements.
as §4

[13] = system: branded AVASTIN®; test: Viscosity of aqueous solutions of branded AVASTIN®; type: physicochemical; conditions: 205 ± 5 mg/mL mAb
Procedure: as §1, §2

[14] = system: bovine gamma globulin; test: Viscosity of aqueous gamma globulin solutions on two viscometers; type: physicochemical; conditions: without CSAL, or with 0.25M CSAL (label CSAL), 25° C., pH 7.0
Procedure: as §1
Aqueous solutions containing 220 mg/mL […]® and 0.25 M CSAA were prepared as described above Example 1. The viscosities at 25° C. and pH 7.0 are reported in Table 29 as extrapolated zero-shear viscosities from cone and plate viscometer measurements and as absolute viscosities measured with a microfluidic viscometer. […] An extrapolated zero-shear viscosity was determined from a plot of absolute viscosity versus shear rate.
In order to compare a broader range of viscosities and protein concentrations, aqueous solutions of a model antibody, bovine gamma globulin, were prepared with and without 0.25 M CSAL. The viscosities were measured as described above at protein concentrations ranging from 110 mg/mL to 310 mg/mL.

[15] = system: biosimilar ERBITUX®; test: Viscosity of aqueous solutions of biosimilar ERBITUX® with viscosity-lowering agents
Procedure: All viscosities of well-mixed aqueous mAb solutions were measured using either a mVROC microfluidic viscometer (RheoSense) or a DV2T cone and plate viscometer (Brookfield; “C & P”) after a 5 minute equilibration at 25° C. (unless otherwise indicated). The mVROC viscometer was equipped with an “A” or “B” chip, each manufactured with a 50 micron channel. Typically, 0.10 mL of protein solution was back-loaded into a gastight microlab instrument syringe (Hamilton; 100 μL), affixed to the chip, and measured at multiple flow rates, approximately 20%, 40%, and 60% of the maximum pressure for each chip. […] An average absolute viscosity and standard deviation was then calculated from at least these three measurements. The C & P viscometer was equipped with a CPE40 or CPE52 spindle (cone angle of 0.8° and 3.0°, respectively) and 0.50 mL samples were measured at multiple shear rates between 2 and 400 s^−1. […] An extrapolated zero-shear viscosity was then determined from a plot of dynamic viscosity versus shear rate for the samples measured on a DV2T cone and plate viscometer. The extrapolated zero-shear viscosities reported are the average and standard deviation of at least three measurements.
First, Polysorbate 80 was removed using DETERGENT-OUT® TWEEN® Medi Columns (G-Biosciences). […] The collected protein solution was freeze-dried. The dried protein cakes, containing protein and buffer salts or agent, were reconstituted to a final volume of 0.15-1.3 mL. […] Reported protein concentrations represent the range of all protein samples included in each Table or Figure. Specifically, reported values are the median plus or minus half the range. Extrapolated zero-shear using an experimentally determined extinction coefficient of 1.4 L/g·cm and viscosities reported were measured on a DV2T cone and plate viscometer.
The final concentration of CSAL upon reconstitution in an aqueous CSAL solution ranged from 0.25 M to 0.50 M.
Specifically, 20 mM solutions of the viscosity-lowering agents of interest were used for buffer exchange, and the lyophilized cakes were reconstituted to 0.25 M of each viscosity-lowering agent. […] The sample was first aliquoted. […] The dried protein cakes, containing protein and viscosity-lowering agent (and a negligible amount of buffer salts) were reconstituted to a final volume of approximately 0.10 mL and viscosity-lowering agent concentration as previously described.
First, Polysorbate was removed from the commercially obtained mAb solutions.
Specifically, 20 mM solutions of the salts of interest were used for buffer exchange, and the lyophilized cakes were reconstituted to contain 0.25 M of each agent. Viscosities were measured using either a RheoSense mVROC microfluidic viscometer equipped with an “A” or “B” chip or a DV2T cone and plate viscometer.
Subsequently, the aqueous drug product was purified, buffer exchanged, concentrated, dried, reconstituted, and analyzed as described in the same manner. Viscosities reported were measured on a RheoSense mVROC microfluidic viscometer.

[16] = 155 ± 5 mg/mL mAb, pH 7.0, 25° C., [CSAL] 0.25 M
[17] = 155 ± 5 mg/mL mAb, pH 7.0, 25° C., [CSAL] 0.38 M
[18] = 155 ± 5 mg/mL mAb, pH 7.0, 25° C., [CSAL] 0.50 M

Work on `Cc1ncc(C[n+]2csc(CCO)c2C)c(N)n1` [Thiamine HCl] yielded a Viscosity ([1]; 190 mg/mL mAb, excipient 0.1 M, 25° C.) of 31.5 ± 1.7 cP, a Viscosity ([1]; 225 mg/mL mAb, excipient 0.25 M, 25° C.) of 53.3 ± 6.8 cP and a Viscosity ([2]; 178 mg/mL REMICADE, excipient […]) of 40.7 ± 0.3 cP. For the same compound, the Viscosity ([3]; 218 mg/mL HERCEPTIN, excipient 0.1 M) was 41.6 ± 0.5 cP, the Viscosity ([3]; 245 mg/mL HERCEPTIN, 0.10M agent) was 41.5 ± 0.5 cP and the Viscosity [4] was 43.4 ± 0.7 cP. For the same compound, the Viscosity ([5]; 212 ± 7 mg/mL ENBREL) was 141 ± 3, the Viscosity ([5]; 250 ± 3 mg/mL ENBREL) was 305 ± 7 and the Viscosity ([5]; 271 ± 0 mg/mL ENBREL) was 626 ± 32. The Viscosity reduction ([5]; […] thiamine HCl vs […] PB) was “up to 2 fold”, the “Viscosity gradient (increase in viscosity with mAb concentration)” value [6] was “the viscosity gradient is reduced” and the “Viscosity reduction for each mAb” value [7] was “greater than 4 fold”.

In the case of “Vedolizumab: mAb being developed by Millennium Pharmaceuticals for ulcerative colitis and Crohn's disease”, the “Patients achieving clinical remission” value [8] is listed as ~60%.

For “camphorsulfonic acid 1-(3-aminopropyl)-2-methyl-1H-imidazole [CSAAPMI]”, the Viscosity reduction ([1]; ~230 mg/mL mAb, vs PB, Table 12) was “approximately 5 fold”, the Viscosity ([9]; 245 ± 4 mg/mL ARZERRA) was 53.6 ± 0.6 cP and the Viscosity ([9]; 274 ± 10 mg/mL ARZERRA) was 98.9 ± 0.7 cP. The “% Monomer” value ([10]; expelled through 27 gauge needle, REMICADE 224-230 mg/mL (per agent)) was 99.1 ± 0.0%, the “% Monomer” value ([10]; expelled through 29 gauge needle, REMICADE 224-230 mg/mL (per agent)) was 99.0 ± 0.0% and the “% Monomer” value ([10]; expelled through 31 gauge needle, REMICADE 224-230 mg/mL (per agent)) was 99.0 ± 0.0%. For the same compound, the “% Monomer” value ([10]; pre-syringe, REMICADE 220-230 mg/mL (per agent)) was 99.2 ± 0.32%, the “Syringe Force” value ([11]; 27 gauge needle) was 21.9 N and the “Syringe Force” value ([11]; 29 gauge needle) was 30.4 N. For the same compound, the “Syringe Force” value ([11]; 31 gauge needle) was 38.4 N, the Viscosity ([12]; 202 ± 2 mg/mL RITUXAN, 0.25M agent, 25° C., pH 7.0) was 38.7 ± 0.7 and the Viscosity ([12]; pH 7) was 78.6 ± 2.0.

With camphorsulfonic acid lysine [CSAL] the “Magnitude of viscosity-lowering effect (replacement of PB with CSAL)” value (from here on “Magnitude of viscosity-lowering effect”) ([1]; 80 mg/mL mAb, 25° C., pH 7.0) was 2.1 fold, the Viscosity ([1]; 210 mg/mL mAb, 0.25 M agent, 25° C., pH 7.0) was 63.0 ± 1.8 cP and the “Fold decrease in viscosity in the presence of CSAL” value ([1]; 0.25 M CSAL vs original excipients, 101 ± 5 mg/mL mAb, pH 7.0, 25° C.) was 1.5 fold. The “Fold reduction in viscosity” value ([1]; 0.25 M CSAL vs phosphate buffer, 205 ± 5 mg/mL mAb) was 1.8 fold, the Viscosity ([1]; 101 ± 5 mg/mL mAb, pH 7.0, 25° C., formulation per label (CSAL 0.25M)) was 4.03 ± 0.24 cP and the Viscosity ([1]; 200 ± 5 mg/mL mAb, pH 7.0, 25° C., [Salt] 0.25 M of anion, C & P viscometer) was 54.9 ± 0.9 cP. The “Viscosity, Biosimilar AVASTIN ®” value ([1]; 205 ± 5 mg/mL mAb, phosphate buffer or 0.25M CSAL, 25° C., pH 7.0) was 54.9 ± 0.9 cP, the Viscosity ([1]; 228 ± 5 mg/mL mAb, agent 0.25 M, 25° C., pH 7.0) was 113 ± 0 cP and the Viscosity ([1]; 230 ± 5 mg/mL mAb, pH 7.0, 0.25M, 20° C.) was 152 ± 0 cP. For the same compound, the Viscosity ([1]; 230 ± 5 mg/mL mAb, pH 7.0, 0.25M, 25° C.) was 107 ± 4 cP, the Viscosity ([1]; 230 ± 5 mg/mL mAb, pH 7.0, 0.25M, 30° C.) was 95.5 ± 5.4 cP and the Viscosity ([1]; 230 ± 5 mg/mL mAb, pH 7.0, […], 20° C.) was 157 ± 0 cP. The Viscosity ([1]; 230 ± 5 mg/mL mAb, pH 7.0, […], 25° C.) was 113 ± 0 cP, the Viscosity ([1]; 230 ± 5 mg/mL mAb, pH 7.0, […], 30° C.) was 91.7 ± 3.3 cP and the “Magnitude of viscosity-lowering effect” value ([1]; 230±5 mg/mL mAb, 25° C., pH 7.0) was 3.7 fold. The “Fold reduction in viscosity” value ([13]; 0.25 M CSAL vs phosphate buffer) was 3.3 fold, the “Viscosity, Branded AVASTIN ®” value ([13]; phosphate buffer or 0.25M CSAL, 25° C., pH 7.0) was 46.7 ± 0.9 cP and the Viscosity ([2]; 166 ± 4 mg/mL REMICADE, 0.25M agent, pH 7.0) was 27.4 ± 0.2 cP. The Viscosity ([2]; 222 ± 6 mg/mL REMICADE, 0.25M agent, pH 7.0) was 95.3 ± 1.1 cP, the Viscosity ([14]; 170 mg/mL gamma globulin, C & P) was 10.3 ± 1.0 cP and the Viscosity ([14]; 170 mg/mL gamma globulin, microfluidic) was 10.6 ± 0.1 cP. For the same compound, the Viscosity ([14]; 260 mg/mL gamma globulin, C & P) was 93.5 ± 1.2 cP, the Viscosity ([14]; 260 mg/mL gamma globulin, microfluidic) was 85.3 ± 0.3 cP and the Viscosity ([14]; 310 mg/mL gamma globulin, C & P) was 223 ± 1 cP. For the same compound, the Viscosity ([14]; 310 mg/mL gamma globulin, microfluidic) was 203 ± 2 cP, the “Fold decrease in viscosity in the presence of CSAL” value ([15]; 0.25 M CSAL vs original excipients, 80 ± 5 mg/mL mAb, pH 7.0, 25° C.) was 2.7 fold and the Viscosity ([15]; 80 ± 5 mg/mL mAb, pH 7.0, 25° C., formulation per label (CSAL 0.25M)) was 3.08 ± 0.18 cP. For the same compound, the “Magnitude of viscosity-lowering effect” value ([15]; 100±5 mg/mL mAb, 0.25 M, 25° C., pH 7.0) was 1.1 fold, the “Fold viscosity reduction (compared to no CSAL present)” value ([15]; 155 ± 5 mg/mL mAb, pH 7.0, 25° C., [CSAL] 0 M) was 1 fold and the Viscosity ([15]; 155 ± 5 mg/mL mAb, pH 7.0, 25° C., [CSAL] 0 M (0.25 M phosphate buffer control)) was 154 ± 0 cP. The “Fold viscosity reduction (compared to no CSAL present)” value [15, 16] was 8.4 fold, the Viscosity [15, 16] was 18.3 ± 0.0 cP and the “Fold viscosity reduction (compared to no CSAL present)” value [15, 17] was 10.3 fold. The Viscosity [15, 17] was 14.9 ± 0.1 cP, the “Fold viscosity reduction (compared to no CSAL present)” value [15, 18] was 12.1 fold and the Viscosity [15, 18] was 12.7 ± 0.1 cP. It also gave a Viscosity ([15]; 222 ± 5 mg/mL mAb, pH 7.0, 0.25M agent, 25° C.) of 109 ± 1 cP, a Viscosity ([15]; 225 ± 5 mg/mL mAb, pH 7.0, 0.25M agent, 20° C.) of 166 ± 2 cP and a Viscosity ([15]; 225 ± 5 mg/mL mAb, pH 7.0, 0.25M agent, 25° C.) of 109 ± 1 cP. The Viscosity ([15]; 225 ± 5 mg/mL mAb, pH 7.0, 0.25M agent, 30° C.) was 78.4 ± 1.5 cP, the “Magnitude of viscosity-lowering effect” value ([15]; pH 7) was 10.3 fold and the “Fold Reduction” value ([15]; vs phosphate buffer, 222 ± 5 mg/mL mAb, pH 7.0, 0.25M agent, 25° C.) was 10.4 fold.
